In experiment [1] the target is T1, βARK (Homo sapiens, UniProt P25098).
T1 sequence (P25098 1-689 A211R/R422H/K465R): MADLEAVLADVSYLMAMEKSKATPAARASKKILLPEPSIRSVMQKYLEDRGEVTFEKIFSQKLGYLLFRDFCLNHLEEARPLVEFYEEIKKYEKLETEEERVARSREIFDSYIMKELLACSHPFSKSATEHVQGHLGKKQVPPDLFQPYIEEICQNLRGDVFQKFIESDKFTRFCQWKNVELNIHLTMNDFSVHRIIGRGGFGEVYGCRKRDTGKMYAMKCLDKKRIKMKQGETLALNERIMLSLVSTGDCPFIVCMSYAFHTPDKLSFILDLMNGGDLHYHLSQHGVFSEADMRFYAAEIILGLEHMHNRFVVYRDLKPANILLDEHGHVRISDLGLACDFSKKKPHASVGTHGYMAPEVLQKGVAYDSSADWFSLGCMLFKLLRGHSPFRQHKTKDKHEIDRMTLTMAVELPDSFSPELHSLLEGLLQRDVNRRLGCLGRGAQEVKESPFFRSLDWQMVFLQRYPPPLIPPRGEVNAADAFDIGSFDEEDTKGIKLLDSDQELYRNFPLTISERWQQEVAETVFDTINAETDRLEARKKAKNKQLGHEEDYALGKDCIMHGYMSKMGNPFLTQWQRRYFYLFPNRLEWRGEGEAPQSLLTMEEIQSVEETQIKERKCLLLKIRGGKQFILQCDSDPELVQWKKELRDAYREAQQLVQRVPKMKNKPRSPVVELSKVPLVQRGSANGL
The experiment is described as follows: βARK inhibition AlphaScreen assay (phosphorylation of biotinylated CCR5 peptide). Format: biochemical. The following applies: 0.5 μM βARK, 100 nM CCR5 peptide, 10 μM ATP, 120 min room temperature, read-out: IC50 (dose-response curve). From the text:
(§1) In the βARK inhibition experiment biotinylated hunian CC ehemokine receptor 5, herein abbreviated CCR5 peptide (Seq. ID No. 1) is phosphorylated by the kinase. The phosphorylated serine is recognized by a specific antibody which, in turn, is bound to protein A coupled acceptor beads. The biotinylated N-terminus of the CCR5 peptide is coupled to streptavidin-coated donor heads. Thus, in the absence of inhibitors an AlphaScreen signal is detected that decreases when the enzymatic activity in inhibited. […]
(§2) Percent-inhibition values are calculated as: […]
Background: Alpha assays give light when donor and acceptor beads are brought close together.

Experiment [2] deals with T2, βARK (Homo sapiens, UniProt P25098, A211R/K465R/R422H).
T2 sequence (P25098 1-689 A211R/R422H/K465R): T1 sequence (P25098 1-689 A211R/R422H/K465R)
The experiment is described as above. Format: biochemical. The conditions noted are these: assay validation, read-out: apparent Km (ATP dependence).
Source text: as §1, §2

As for heparin, the IC50 in experiment [1] was 50 nM.

For `Nc1ncnc2c1ncn2[C@@H]1O[C@H](COP(=O)(O)OP(=O)(O)OP(=O)(O)O)[C@@H](O)[C@H]1O` [ATP], the Km in experiment [2] amounted to 4 µM.

In general, IC50 refers to the concentration needed to halve the response being measured. The Km is the substrate concentration at which the rate is half of its maximum.

Values taken from patent publication US7279286B2, “High-throughput-assay with high sensitivity for measuring of the activity of β-adrenergic receptor kinase and for determining the impact of test substances on such activity” (Sanofi-Aventis Deutschland GmbH, priority 2003, dated 2007).
